Source: patent publication US20250250227A1, “AMINO LIPID COMPOUND, PREPARATION METHOD THEREFOR, COMPOSITION THEREOF AND USE THEREOF” (SHENZHEN SHENXIN BIOTECHNOLOGY CO., LTD., priority 2022, published 2025)

tested on: Female BALB/c mice; assay: In vivo safety of hEPO mRNA lipid nanoparticle: serum alanine aminotransferase (ALT) enzyme activity; conditions: hEPO mRNA LNP, 300 μL IV, serum 12 h after injection; FIG. 1
Method: A human erythropoietin mRNA (hEPO mRNA)-encapsulating lipid nanoparticle formulation was prepared according to the method as described in Experimental Example 1, with replacing the luciferase mRNA (Fluc mRNA) with human erythropoietin mRNA (hEPO mRNA), with a concentration of hEPO mRNA of 0.2 g/L, a mass ratio of hEPO mRNA to Lipid of 1:10, a particle size of 90-130 nm, and an encapsulation efficiency of above 90% or higher.
Animal preparation: Female BALB/c mice of 6-8 weeks old were selected and raised in an SPF grade breeding room. Animal testing was conducted in strict accordance with the guidelines of national health institutions and animal ethics requirements.
In vivo Delivery: Prior to injection of the test LNP formulations, the LNP formulations were gently and repeatedly inverted to thoroughly mix the formulation samples. A corresponding amount of the formulation samples were aspirated with a 1 ml insulin syringe, and the LNP formulations were injected by tail vein injection (IV), with 5 mice per formulation. Each mouse was injected with 300 μL of the human erythropoietin mRNA (hEPO mRNA)-encapsulating lipid nanoparticle formulation.
Serum acquisition: Blood samples of mice were collected 12 h after injection, placed in tubes without anticoagulants, and naturally coagulated at room temperature for 30-60 min, and then centrifuged at a speed of 3500 rpm for 10 min to obtain the supernatant, which was the serum.
The detection of alanine transaminase was carried out according to instructions of the kit (Nanjing Jiancheng Bioengineering Institute, Catalog. No. C009-2-1), and a standard curve was made using the standard provided in the kit. D-PBS was used in the experiment, which was purchased from Sangon Biotech (Shanghai) Co., Ltd., Catalog No. E607009-0600.
The method of detection of enzyme activity of alanine aminotransferase (ALT) in serum of the mice is as follows:
• (1) Enzymatic reaction: 0, 2, 4, 6, 8 and 10 μL of […] sodium pyruvate standard solution were sequentially added to 5 μL of 0.1 mol/L phosphate buffer, and the volume was supplemented to 25 μL with a matrix solution, and repeatedly aspirating and spitting with a pipette for mixing well; • (2) Addition reaction: 20 μL 2,4-dinitrophenylhydrazine solution was added to all reaction wells in (1), mixed by aspirating and spitting, and then placed in an incubator at 37° C. to react for 20 min; • (3) Developing: 200 μL of 0.4 mol/L NaOH solution was added to all reaction wells in (2) to stop the reaction, mixed by aspirating and spitting, and incubated at room temperature for 15 min. The OD value of each well was measured at 510 nm in a microplate reader; and • (4) Data processing of standard curve: The corresponding absolute OD value for each well was obtained by subtracting the OD value for 0 μL well from the measured OD value for each well, the corresponding ALT Karmen units being 0, 28, 57, 97, 150 and 200 U/L, respectively. The standard curve was obtain by taking the absolute OD value as the abscissa and the corresponding Karmen unit as the ordinate.
• (1) Reagent preparation: an ALT matrix solution was placed in an incubator at 37° C. for preheating; • (2) Enzymatic reaction: 5 μL diluted serum was aspirated and added to a 96-well plate, then 20 μL matrix solution was added to the corresponding sample well and mixed by repeatedly aspirating and spitting to avoid bubbling, and then placed in an incubator at 37° C. for 30 min; • (3) Addition reaction: 20 μL 2,4-dinitrophenylhydrazine was added to all reaction wells in (2), mixed by aspirating and spitting, and then reacted in an incubator at 37° C. for 20 min; • (4) Developing: 200 μL of 0.4 mol/L NaOH solution was added to all reaction wells in (3) to stop the reaction, mixed by aspirating and spitting, and then incubated at room temperature for 15 min. […]

SMILES | ALT enzyme activity (Karmen unit) compared to ALC0315 and SM-102
CCCCCCC(CCCCCC)OC(=O)CCCCCCCCC(CCCCCCCCC(=O)OC(CCCCCC)CCCCCC)OC(=O)N(CCCN(C)C)CCC(=O)OCCCC [Compound 264] | significantly lower ALT enzyme activity
CCCCCCCOC(=O)CCN(CCCN(C)C)C(=O)OC(CCCCCCCCC(=O)OC(CCCCCC)CCCCCC)CCCCCCCCC(=O)OC(CCCCCC)CCCCCC [Compound 267] | significantly lower ALT enzyme activity
CCCCCCC(CCCCCC)OC(=O)CCCCCCCCC(CCCCCCCCC(=O)OC(CCCCCC)CCCCCC)OC(=O)N(CCCN(C)C)CC(=O)OCCCC [Compound 270] | significantly lower ALT enzyme activity
CCCCCCOC(=O)CN(CCCN(C)C)C(=O)OC(CCCCCCCCC(=O)OC(CCCCCC)CCCCCC)CCCCCCCCC(=O)OC(CCCCCC)CCCCCC [Compound 272] | significantly lower ALT enzyme activity
CCCCCCCOC(=O)CN(CCCN(C)C)C(=O)OC(CCCCCCCCC(=O)OC(CCCCCC)CCCCCC)CCCCCCCCC(=O)OC(CCCCCC)CCCCCC [Compound 273] | significantly lower ALT enzyme activity
